# Assay results from US8686041B2, “Inhibition of ornithine aminotransferase for the treatment of proliferative disorders” (Hadasit Medical Research Services & Development, Ltd., priority 2006, dated 2014).
# Legend:
# [1] = system: HEP3B; assay: αFP secretion by HCC cell lines with Gabaculine analogue 8; type: cell-based, human; conditions: 48 hours
# Description: (§1) 1×10^5 cells/well of each of Hep3b and HepG2 hepatocellular carcinoma cell lines were plated in triplicate and incubated at 37° C. Gabaculine analogue 8 was added to wells at varying concentrations (0.1 μg/ml, 1 μg/ml, 10 μg/ml and 50 μg/ml). Cells returned to incubator for further incubation of 48 hours. In the fourth day of the experiment, one ml of supernatant from each well was transferred to eppendorf tubes and analyzed for αFP concentration. αFP levels were checked using the Abbott Diagnostic AxSYM system. Encouraged by the in vitro and in vivo results of inhibiting OAT using Gabaculine, the inventors next examined the in vitro effect of a further OAT inhibitor, Gabaculine analogue 8 (LHJ-II-79), on AFP secretion from two different HCC cell lines. Therefore, Hep3b and HepG2 hepatocellular carcinoma cell lines were detached from culture dishes using trypsin-EDTA, re-plated in triplicates in 12 well culture dishes (1×10^5 cells/well) and incubated at 37° C. Gabaculine analogue 8 was added to wells at varying concentrations (0.1 μg/ml, 1 μg/ml, 10 μg/ml and 50 μg/ml). After 48 hours, cell supernatant was analyzed for AFP concentration.
# [2] = system: HepG2; assay: as above; type: cell-based, human; conditions: 48 hours
# Description: as §1
# [3] = 0.1-50 μg/ml, effect concentration dependent
compound,measurement,setting,value
"Cl.NC1CC(C(=O)O)CC1=C=C(C(F)(F)F)C(F)(F)F (stereo not shown) [analogue 8, 1-carboxy-3-amino-4-bis(trifluoromethyl)vinylidene cyclopentane hydrochloride]","AFP secretion by the cells, in words",[1]; [3],significant reduction of AFP secretion
same,AVG results AF,"[1]; EXP. I, 10 ug/ml, 1:5 dil, CONTROL 42.52",37.96 ng/mL
same,AVG results AF,"[1]; EXP. I, 50 ug/ml, 1:5 dil, CONTROL 42.52",18.52 ng/mL
same,AVG results AF,"[1]; EXP. II, 0.1 ug/ml, 1:5 dil, CONTROL 13.42",12.66 ng/mL
same,AVG results AF,"[1]; EXP. II, 1 ug/ml, 1:5 dil, CONTROL 13.42",11.92 ng/mL
same,AVG results AF,"[1]; EXP. II, 10 ug/ml, 1:5 dil, CONTROL 13.42",9.63 ng/mL
same,AVG results AF,"[1]; EXP. II, 50 ug/ml, 1:5 dil, CONTROL 13.42",9.37 ng/mL
same,AVG results AF,"[1]; EXP. III, 10 ug/ml, 1:5 dil, CONTROL 11.39",10.97 ng/mL
same,AVG results AF,"[1]; EXP. III, 50 ug/ml, 1:5 dil, CONTROL 11.39",6.98 ng/mL
same,AVG results AF,"[1]; EXP. IV, 10 ug/ml, 1:2 dil, CONTROL 18.45",13.73 ng/mL
same,AVG results AF,"[1]; EXP. IV, 50 ug/ml, 1:2 dil, CONTROL 18.45",11.30 ng/mL
same,"AFP secretion by the cells, in words",[2]; [3],significant reduction of AFP secretion
same,AVG results AF,"[2]; EXP. I, 10 ug/ml, 1:100 dil, CONTROL 34.19",37.98 ng/mL
same,AVG results AF,"[2]; EXP. I, 50 ug/ml, 1:100 dil, CONTROL 34.19",23.54 ng/mL
same,AVG results AF,"[2]; EXP. II, 0.1 ug/ml, 1:100 dil, CONTROL 11.93",11.92 ng/mL
same,AVG results AF,"[2]; EXP. II, 1 ug/ml, 1:100 dil, CONTROL 11.93",12.85 ng/mL
same,AVG results AF,"[2]; EXP. II, 10 ug/ml, 1:100 dil, CONTROL 11.93",11.38 ng/mL
same,AVG results AF,"[2]; EXP. II, 50 ug/ml, 1:100 dil, CONTROL 11.93",8.54 ng/mL
same,AVG results AF,"[2]; EXP. III, 10 ug/ml, 1:100 dil, CONTROL 12.07",10.67 ng/mL
same,AVG results AF,"[2]; EXP. III, 50 ug/ml, 1:100 dil, CONTROL 12.07",7.57 ng/mL
same,AVG results AF,"[2]; EXP. IV, 10 ug/ml, 1:50 dil, CONTROL 13.32",12.74 ng/mL
same,AVG results AF,"[2]; EXP. IV, 50 ug/ml, 1:50 dil, CONTROL 13.32",8.94 ng/mL
